Experimental data from patent US11185488B2, “Skin external preparation composition for moisturizing skin containing 1,2,3,4,6-penta-O-galloyl-β-D-glucose” (AMOREPACIFIC CORPORATION, priority 2017, dated 2021).

How the values were obtained:
Assay type in all cases: cell-based
filaggrin = assay: Gene expression level of filaggrin (RNA separation and RT-PCR); conditions: neonatal keratinocytes, 1 ppm, 2 days; for Increase in filaggrin expression(%): corrected to RPL13A
Experimental: Neonatal keratinocytes (obtained from Lonza) was dispensed into a 60 mm cell culture dish at a density of 1.25×10^6 cells/dish using KGM medium, and then cultured at 37° C. in a 5% CO2 incubator up to about 80% confluency. Then, eight compounds including PGG from soybean, green tea, ginseng, and other natural products were selected as test substances (Table 1), and the cells were treated with each of these compounds at 1 ppm and cultured for 2 days. After the culture, the medium was removed, and 1 ml of Trizol (Invitrogen) was added, and mRNA was isolated according to an RNA isolation method of Invitrogen. mRNA was quantified at 260 nm using an ultraviolet detector (Hewlett Packard), and RT-PCR (Reverse Transcription-Polymerase Chain Reaction) was performed. For genetic analysis of each sample, correction was performed based on the complementary gene, RPL13A, and the expression level of filaggrin for each sample is shown in Table 1 below.

involucrin (IVL) = assay: Gene increase experiment for involucrin (IVL) (RNA isolation and RT-PCR); conditions: keratinocytes, 4 days, corrected to RPLP0, FIG. 2
Experimental: (§1) Neonatal keratinocytes was dispensed into a 60 mm cell culture dish at a density of 1.25×10^6 cells/dish using KGM medium, and then cultured at 37° C. in a 5% CO2 incubator up to about 80% confluency. Then, the keratinocytes were treated with 0.2 ppm or 1 ppm of PGG, cultured for 4 days. After the culture, the medium was removed and 1 ml of Trizol (Invitrogen) was added thereto, and mRNA was isolated according to the RNA isolation method of Invitrogen. After quantifying mRNA at 260 nm using a CV detector (HEWLETT PACKARD), RT-PCR (Reverse transcription-polymerase chain reaction) was performed by using the primers of LOR and IVL (LOR-HS01894962_s1, IVL HS00846307_s1, respectively, both of which were obtained from Life Technologies). For genetic analysis of each sample, the correction was performed based on the complementary gene, RPLP0, and the results are shown in Table 2 below.

Neonatal keratinocytes = assay: Evaluation of cytotoxicity of PGG (cell viability); conditions: PGG 0, 1, 2, 4 ppm, cultured 4 days, FIG. 1
Experimental: Neonatal keratinocytes (obtained from Lonza) was dispensed into a 60 mm cell culture dish at a density of 1.25×10^6 cells/dish using KGM medium, and then cultured at 37° C. in a 5% CO2 incubator up to about 80% confluency. Then, the cells were treated with PGG at concentrations of 0 ppm, 1 ppm, 2 ppm, and 4 ppm, cultured for 4 days, and then the viability of the cells was confirmed.

loricrin (LOR) = assay: Gene increase experiment for loricrin (LOR) (RNA isolation and RT-PCR); conditions: keratinocytes, 4 days, corrected to RPLP0, FIG. 2
Experimental: as §1

| Compound | Increase in filaggrin expression(%) (filaggrin) | further results |
| --- | --- | --- |
| O=c1c(-c2ccc(O)cc2)coc2cc(O)c(O)cc12 [6,7,4′-trihydroxyisoflavone] | 103% |  |
| O=C(OC[C@H]1O[C@@H](OC(=O)c2cc(O)c(O)c(O)c2)[C@H](OC(=O)c2cc(O)c(O)c(O)c2)[C@@H](OC(=O)c2cc(O)c(O)c(O)c2)[C@@H]1OC(=O)c1cc(O)c(O)c(O)c1)c1cc(O)c(O)c(O)c1 [PGG, 1,2,3,4,6-penta-O-galloyl-β-D-glucose] | 229% | expression level of involucrin gene compared to control group (involucrin (IVL); 0.2 ppm): three-fold or more increase; increase of involucrin gene compared to control group (involucrin (IVL); 1 ppm): 5 times; cell viability (Neonatal keratinocytes): no significant difference in cell viability; expression level of loricrin gene compared to control group (loricrin (LOR); 0.2 ppm): almost no difference compared to the control group; increase of loricrin gene compared to control group (loricrin (LOR); 1 ppm): ≥ 2 times; rate of increase in the expression of filaggrin versus control group (filaggrin): more than 2 times |
| O=c1c(-c2ccc(O)c(O)c2)coc2cc(O)ccc12 [7,3′,4′-trihydroxyisoflavone] | 110% |  |
| C[C@@]12C[C@@]3(O)O[C@@H](O1)[C@]1(COC(=O)c4ccccc4)[C@H]3C[C@@]12O[C@@H]1O[C@H](CO)[C@@H](O)[C@H](O)[C@H]1O [Paeoniflorin] | 116% |  |
| Oc1cc(O)c2c(c1)O[C@H](c1ccc(O)c(O)c1)[C@H](O)C2 [(−)-Epicatechin(EC), (−)-Epicatechin] | 108% |  |
| COc1cc([C@H]2OC[C@H]3[C@@H]2CO[C@@H]3c2cc(OC)c(O)c(OC)c2)cc(OC)c1O [Syringaresinol] | 103% |  |
| C[C@]12C[C@@H](O)[C@@H]3C[C@@]1(O[C@@H]1O[C@H](CO)[C@@H](O)[C@H](O)[C@H]1O)[C@@]3(COC(=O)c1ccccc1)C(=O)O2 [Albiflorin] | 107% |  |
| O=c1c(O[C@@H]2O[C@H](CO)[C@@H](O)[C@H](O)[C@H]2O)c(-c2ccc(O)cc2)oc2cc(O)cc(O)c12 [Astragalin] | 105% |  |
